Experimental data reported in patent US6339042B1, “Herbicidal N-cyclohexadienyl heteroaryloxyacetamides” (American Cyanamid Co., priority 1999, dated 2002).

Experiments:
[1] = system: Amaranthus tuberculatus; experiment: Pre-emergence herbicidal evaluation, AMATA; format: in vivo; settings: three weeks after treatment
Description: (§1) The treated pots are then placed on greenhouse benches, watered and cared for in accordance with conventional greenhouse procedures.

[2] = system: Alopecurus myosuroides; experiment: Pre-emergence herbicidal evaluation, ALOMY; format: in vivo; settings: three weeks after treatment
Description: as §1

[3] = system: Apera spica venti; experiment: Pre-emergence herbicidal evaluation, APESV; format: in vivo; settings: three weeks after treatment
Description: as §1

[4] = system: Echinochloa crus-galli; experiment: Pre-emergence herbicidal evaluation, ECHCG; format: in vivo; settings: three weeks after treatment
Description: as §1

[5] = system: Setaria viridis; experiment: Pre-emergence herbicidal evaluation, SETVI; format: in vivo; settings: three weeks after treatment
Description: as §1

[6] = system: Lolium perenne; experiment: Pre-emergence herbicidal evaluation, LOLPE; format: in vivo; settings: three weeks after treatment
Description: as §1

[7] = system: Triticum aestivum; experiment: Pre-emergence herbicidal evaluation, TRZAW; format: in vivo; settings: three weeks after treatment
Description: as §1

[8] = system: Hordeum vulgare; experiment: Pre-emergence herbicidal evaluation, HORVW; format: in vivo; settings: three weeks after treatment
Description: as §1

[9] = system: Zea mays; experiment: Pre-emergence herbicidal evaluation, ZEAMX; format: in vivo; settings: three weeks after treatment
Description: as §1

[10] = system: Glycine max; experiment: Pre-emergence herbicidal evaluation, GLXMA; format: in vivo; settings: three weeks after treatment
Description: as §1

[11] = system: Oryza sativum; experiment: Pre-emergence herbicidal evaluation, ORYSA; format: in vivo; settings: three weeks after treatment
Description: as §1

[12] = system: Amaranthus tuberculatus; experiment: Post-emergence herbicidal evaluation, AMATA; format: in vivo; settings: three weeks after treatment
[13] = system: Galium aparine; experiment: Post-emergence herbicidal evaluation, GALAP; settings: three weeks after treatment
[14] = system: Alopecurus myosuroides; experiment: Post-emergence herbicidal evaluation, ALOMY; settings: three weeks after treatment
[15] = system: Apera spica venti; experiment: Post-emergence herbicidal evaluation, APESV; settings: three weeks after treatment
Description: (§2) The compounds of the invention are tested for pre- and post-emergence herbicidal activity.
(§3) Each pot is examined three weeks after treatment and phytotoxicity is assessed according to the rating system set forth below.
(§4) These acetone solutions are diluted with water and the resulting formulations applied at dosage levels equivalent of about 0.4 to 0.1 kg per hectare of test compound per pot. After spraying the plants are placed on greenhouse benches and are cared for in the usual manner, commensurate with conventional greenhouse practices.

[16] = system: Echinochloa crus-galli; experiment: Post-emergence herbicidal evaluation, ECHCG; settings: three weeks after treatment
[17] = system: Setaria viridis; experiment: Post-emergence herbicidal evaluation, SETVI; settings: three weeks after treatment
[18] = system: Lolium perenne; experiment: Post-emergence herbicidal evaluation, LOLPE; settings: three weeks after treatment
[19] = system: Triticum aestivum; experiment: Post-emergence herbicidal evaluation, TRZAW; settings: three weeks after treatment
[20] = system: Hordeum vulgare; experiment: Post-emergence herbicidal evaluation, HORVW; settings: three weeks after treatment
[21] = system: Zea mays; experiment: Post-emergence herbicidal evaluation, ZEAMX; settings: three weeks after treatment
Description: as §3, §4

[22] = system: Glycine max; experiment: Post-emergence herbicidal evaluation, GLXMA; settings: three weeks after treatment
[23] = system: Oryza sativum; experiment: Post-emergence herbicidal evaluation, ORYSA; settings: three weeks after treatment
Description: as §2, §3, §4

CC1=CC(N(C)C(=O)COc2nnc(C(F)(F)F)s2)=CC(C)(C)C1 [Example 3]
phytotoxicity rating AMATA ([1]; 0.100 kg/ha): 0 (0 - No effect) | phytotoxicity rating AMATA ([1]; 0.200 kg/ha): 0 (0 - No effect) | phytotoxicity rating AMATA ([1]; 0.400 kg/ha): 6 (6 - Herbicidal effect) | phytotoxicity rating AMATA ([1]; 0.800 kg/ha): 8 (8 - Approaching complete kill) | phytotoxicity rating ALOMY ([2]; 0.100 kg/ha): 6 (6 - Herbicidal effect) | phytotoxicity rating ALOMY ([2]; 0.200 kg/ha): 8 (8 - Approaching complete kill) | phytotoxicity rating ALOMY ([2]; 0.400 kg/ha): 8 (8 - Approaching complete kill) | phytotoxicity rating ALOMY ([2]; 0.800 kg/ha): 9 (9 - Complete kill) | phytotoxicity rating APESV ([3]; 0.100 kg/ha): 3 (3 - Moderate effect) | phytotoxicity rating APESV ([3]; 0.200 kg/ha): 6 (6 - Herbicidal effect) | phytotoxicity rating APESV ([3]; 0.400 kg/ha): 8 (8 - Approaching complete kill) | phytotoxicity rating APESV ([3]; 0.800 kg/ha): 9 (9 - Complete kill) | phytotoxicity rating ECHCG ([4]; 0.100 kg/ha): 6 (6 - Herbicidal effect) | phytotoxicity rating ECHCG ([4]; 0.200 kg/ha): 8 (8 - Approaching complete kill) | phytotoxicity rating ECHCG ([4]; 0.400 kg/ha): 8 (8 - Approaching complete kill) | phytotoxicity rating ECHCG ([4]; 0.800 kg/ha): 9 (9 - Complete kill) | phytotoxicity rating SETVI ([5]; 0.100 kg/ha): 6 (6 - Herbicidal effect) | phytotoxicity rating SETVI ([5]; 0.200 kg/ha): 8 (8 - Approaching complete kill) | phytotoxicity rating SETVI ([5]; 0.400 kg/ha): 8 (8 - Approaching complete kill) | phytotoxicity rating SETVI ([5]; 0.800 kg/ha): 9 (9 - Complete kill) | phytotoxicity rating LOLPE ([6]; 0.100 kg/ha): 3 (3 - Moderate effect) | phytotoxicity rating LOLPE ([6]; 0.200 kg/ha): 7 (7 - Good herbicidal effect) | phytotoxicity rating LOLPE ([6]; 0.400 kg/ha): 9 (9 - Complete kill) | phytotoxicity rating LOLPE ([6]; 0.800 kg/ha): 9 (9 - Complete kill) | phytotoxicity rating TRZAW ([7]; 0.100 kg/ha): 0 (0 - No effect) | phytotoxicity rating TRZAW ([7]; 0.200 kg/ha): 1 (1 - Trace effect) | phytotoxicity rating TRZAW ([7]; 0.400 kg/ha): 1 (1 - Trace effect) | phytotoxicity rating TRZAW ([7]; 0.800 kg/ha): 3 (3 - Moderate effect) | phytotoxicity rating HORVW ([8]; 0.100 kg/ha): 0 (0 - No effect) | phytotoxicity rating HORVW ([8]; 0.200 kg/ha): 1 (1 - Trace effect) | phytotoxicity rating HORVW ([8]; 0.400 kg/ha): 1 (1 - Trace effect) | phytotoxicity rating HORVW ([8]; 0.800 kg/ha): 4 (4 - Injury) | phytotoxicity rating ZEAMX ([9]; 0.100 kg/ha): 0 (0 - No effect) | phytotoxicity rating ZEAMX ([9]; 0.200 kg/ha): 1 (1 - Trace effect) | phytotoxicity rating ZEAMX ([9]; 0.400 kg/ha): 3 (3 - Moderate effect) | phytotoxicity rating ZEAMX ([9]; 0.800 kg/ha): 7 (7 - Good herbicidal effect) | phytotoxicity rating GLXMA ([10]; 0.100 kg/ha): 0 (0 - No effect) | phytotoxicity rating GLXMA ([10]; 0.200 kg/ha): 0 (0 - No effect) | phytotoxicity rating GLXMA ([10]; 0.400 kg/ha): 0 (0 - No effect) | phytotoxicity rating GLXMA ([10]; 0.800 kg/ha): 0 (0 - No effect) | phytotoxicity rating ORYSA ([11]; 0.100 kg/ha): 1 (1 - Trace effect) | phytotoxicity rating ORYSA ([11]; 0.200 kg/ha): 3 (3 - Moderate effect) | phytotoxicity rating ORYSA ([11]; 0.400 kg/ha): 6 (6 - Herbicidal effect) | phytotoxicity rating ORYSA ([11]; 0.800 kg/ha): 6 (6 - Herbicidal effect) | phytotoxicity rating AMATA ([12]; 0.200 kg/ha): 0 (0 - No effect) | phytotoxicity rating AMATA ([12]; 0.400 kg/ha): 0 (0 - No effect) | melting point: 54 to 57 °C | phytotoxicity rating GALAP ([13]; 0.200 kg/ha): 4 (4 - Injury) | phytotoxicity rating GALAP ([13]; 0.400 kg/ha): 5 (5 - Definite injury) | phytotoxicity rating ALOMY ([14]; 0.200 kg/ha): 4 (4 - Injury) | phytotoxicity rating ALOMY ([14]; 0.400 kg/ha): 7 (7 - Good herbicidal effect) | phytotoxicity rating APESV ([15]; 0.200 kg/ha): 6 (6 - Herbicidal effect) | phytotoxicity rating APESV ([15]; 0.400 kg/ha): 3 (3 - Moderate effect) | phytotoxicity rating ECHCG ([16]; 0.200 kg/ha): 1 (1 - Trace effect) | phytotoxicity rating ECHCG ([16]; 0.400 kg/ha): 4 (4 - Injury) | phytotoxicity rating SETVI ([17]; 0.200 kg/ha): 0 (0 - No effect) | phytotoxicity rating SETVI ([17]; 0.400 kg/ha): 0 (0 - No effect) | phytotoxicity rating LOLPE ([18]; 0.200 kg/ha): 7 (7 - Good herbicidal effect) | phytotoxicity rating LOLPE ([18]; 0.400 kg/ha): 7 (7 - Good herbicidal effect) | phytotoxicity rating TRZAW ([19]; 0.200 kg/ha): 1 (1 - Trace effect) | phytotoxicity rating TRZAW ([19]; 0.400 kg/ha): 3 (3 - Moderate effect) | phytotoxicity rating HORVW ([20]; 0.200 kg/ha): 0 (0 - No effect) | phytotoxicity rating HORVW ([20]; 0.400 kg/ha): 2 (2 - Slight effect) | phytotoxicity rating ZEAMX ([21]; 0.200 kg/ha): 0 (0 - No effect) | phytotoxicity rating ZEAMX ([21]; 0.400 kg/ha): 0 (0 - No effect) | phytotoxicity rating GLXMA ([22]; 0.200 kg/ha): 2 (2 - Slight effect) | phytotoxicity rating GLXMA ([22]; 0.400 kg/ha): 4 (4 - Injury) | phytotoxicity rating ORYSA ([23]; 0.200 kg/ha): 0 (0 - No effect) | phytotoxicity rating ORYSA ([23]; 0.400 kg/ha): 2 (2 - Slight effect)
